According to patent EP0183174A2, “Substituted phenoxy urea, processes for its preparation and herbicide containing it as active ingredient” (KUMIAI CHEMICAL INDUSTRY CO., LTD., priority 1984, dated 1986):

Key:
Japanese bulrush = test: Test Example 1: herbicidal test by water treatment in a paddy field; assay type: in vivo, Scir^pus juncoides Roxb.; parameters: key: 5: Withered; 4.5: Herbicidal effect (or phytotoxicity) in a range of 90 to 99%; 4: Herbicidal effect (or phytotoxicity) in a range of 80 to 89%; 3.5: Herbicidal effect (or phytotoxicity) in a range of 70 to 79%; 3: Herbicidal effect (or phytotoxicity) in a range of 60 to 69%; 2.5: Herbicidal effect (or phytotoxicity) in a range of 50 to 59%; 2: Herbicidal effect (or phytotoxicity) in a range of 40 to 49%; 1.5: Herbicidal effect (or phytotoxicity) in a range of 30 to 39%; 1: Herbicidal effect (or phytotoxicity) in a range of 20 to 29%; 0.5: Herbicidal effect (or phytotoxicity) in a range of 1 to 19%; 0: No herbicidal effect (or no phytotoxicity); details: evaluated thirty days after application
Method: (§1) Into each porcelain pot having a diameter of 10 cm, paddy soil was filled and puddled, and seeds of barnyardgrass (Echinochloa crus-galli L.), smallflower flatsedge, monochoria and Japanese bulrush were sown, and water was filled in a-depth of 3 cm. One day later, a predetermined amount of the wettable powder prepared in Formulation Example 3 and diluted with water was dropwise applied to the surface of the water (dose of the active ingredient: 4 kg/hectare). Thereafter, they were grown in a green house. Thirty days after the application, the herbicidal effects were evaluated in accordance with the standards as identified in Table 5.

monochoria = test: as above; assay type: in vivo, Monochoria vaginalis Presl; parameters: key: 5: Withered; 4.5: Herbicidal effect (or phytotoxicity) in a range of 90 to 99%; 4: Herbicidal effect (or phytotoxicity) in a range of 80 to 89%; 3.5: Herbicidal effect (or phytotoxicity) in a range of 70 to 79%; 3: Herbicidal effect (or phytotoxicity) in a range of 60 to 69%; 2.5: Herbicidal effect (or phytotoxicity) in a range of 50 to 59%; 2: Herbicidal effect (or phytotoxicity) in a range of 40 to 49%; 1.5: Herbicidal effect (or phytotoxicity) in a range of 30 to 39%; 1: Herbicidal effect (or phytotoxicity) in a range of 20 to 29%; 0.5: Herbicidal effect (or phytotoxicity) in a range of 1 to 19%; 0: No herbicidal effect (or no phytotoxicity); details: evaluated thirty days after application
Method: as §1

[1] = tested on: barnyardgrass (Echinochloa crus-galli L.); test: as above; assay type: in vivo; parameters: key: 5: Withered; 4.5: Herbicidal effect (or phytotoxicity) in a range of 90 to 99%; 4: Herbicidal effect (or phytotoxicity) in a range of 80 to 89%; 3.5: Herbicidal effect (or phytotoxicity) in a range of 70 to 79%; 3: Herbicidal effect (or phytotoxicity) in a range of 60 to 69%; 2.5: Herbicidal effect (or phytotoxicity) in a range of 50 to 59%; 2: Herbicidal effect (or phytotoxicity) in a range of 40 to 49%; 1.5: Herbicidal effect (or phytotoxicity) in a range of 30 to 39%; 1: Herbicidal effect (or phytotoxicity) in a range of 20 to 29%; 0.5: Herbicidal effect (or phytotoxicity) in a range of 1 to 19%; 0: No herbicidal effect (or no phytotoxicity); details: evaluated thirty days after application
Method: as §1

smallflower flatsedge = test: as above; assay type: in vivo, Cvperus diffcrmis L.; parameters: key: 5: Withered; 4.5: Herbicidal effect (or phytotoxicity) in a range of 90 to 99%; 4: Herbicidal effect (or phytotoxicity) in a range of 80 to 89%; 3.5: Herbicidal effect (or phytotoxicity) in a range of 70 to 79%; 3: Herbicidal effect (or phytotoxicity) in a range of 60 to 69%; 2.5: Herbicidal effect (or phytotoxicity) in a range of 50 to 59%; 2: Herbicidal effect (or phytotoxicity) in a range of 40 to 49%; 1.5: Herbicidal effect (or phytotoxicity) in a range of 30 to 39%; 1: Herbicidal effect (or phytotoxicity) in a range of 20 to 29%; 0.5: Herbicidal effect (or phytotoxicity) in a range of 1 to 19%; 0: No herbicidal effect (or no phytotoxicity); details: evaluated thirty days after application
Method: as §1

barnyardgrass = test: Test Example 2: herbicidal test for selectivity between rice and barnyardgrass (herbicidal effects); assay type: in vivo, Echinochloa crus-galli L.; details: barnyardgrass of 2-leaf stage, thirty days after application
Method: (§2) Into each 1/5000 are Wager pot, paddy soil was filled and puddled, then seeds of barnyardgrass were sown and grown until they reached 2-leaf stage. The barnyardgrass of 2-leaf stage was thinned out to adjust the number of barnyardgrass to fifteen per pot, and rice seedlings of 2-leaf stage were transplanted in the same pot. […] Thereafter, they were grown in a green house, and thirty days after the application, the herbicidal effects and phytotoxicity were evaluated in accordance with the standards as identified in Table 5.

Paddy rice = test: Test Example 2: herbicidal test for selectivity between rice and barnyardgrass (phytotoxicity); assay type: in vivo; details: thirty days after application
Method: as §2

[2] = Herbicidal activity of the prior-art compound, used in the same manner as the compound of the invention (general statement); assay type: in vivo; details: used in the same manner as the compound of the present invention
[3] = water treatment in paddy field pot, dose of active ingredient 4 kg/hectare
[4] = dose of the active ingredient 4 kg/hectare, wettable powder applied to water surface one day after sowing

## 3-(2,5-Dichlorophenoxy)-1,1-dimethyl urea trichloroacetate [Compound No. 185]
Japanese bulrush; [3]
  Herbicidal effects Japanese bulrush: 5
monochoria; [3]
  Herbicidal effects Monochoria: 5
[1]; [3]
  Herbicidal effects Barnyard grass: 5
Smallflower flatsedge; [3]
  Herbicidal effects Small flower flatsedge: 5

## 3-(3,5-Dichlorophenoxy)-1,1-dimethyl urea trichloroacetate [Compound No. 184]
Japanese bulrush; [3]
  Herbicidal effects Japanese bulrush: 5
monochoria; [3]
  Herbicidal effects Monochoria: 5
[1]; [3]
  Herbicidal effects Barnyard grass: 5
Smallflower flatsedge; [3]
  Herbicidal effects Small flower flatsedge: 5

## NC(=O)NOc1cccc(Cl)c1 [Comparative Compound]
Japanese bulrush; [3]
  Herbicidal effects Japanese bulrush: 0
monochoria; [3]
  Herbicidal effects Monochoria: 0
[1]; [3]
  Herbicidal effects Barnyard grass: 0
Smallflower flatsedge; [3]
  Herbicidal effects Small flower flatsedge: 0

## C=CCNC(=O)NOc1cc(Cl)ccc1Cl [Compound No. 2, 1-Allyl-3-(2,5-dichlorophenoxy) urea]
Japanese bulrush; [4]
  Herbicidal effects Japanese bulrush: 5
barnyardgrass; Dose 0.5 kg/Ha
  Herbicidal effects Barnyard grass: 5
barnyardgrass; Dose 1 kg/Ha
  Herbicidal effects Barnyard grass: 5
monochoria; [4]
  Herbicidal effects Monochoria: 5
Paddy rice; Dose 0.5 kg/Ha, transplanted rice seedlings of 2-leaf stage
  Phytotoxicity Paddy rice: 0
Paddy rice; Dose 1 kg/Ha, transplanted rice seedlings of 2-leaf stage
  Phytotoxicity Paddy rice: 1 (Herbicidal effect (or phytotoxicity) in a range of 20 to 29%)
[1]; [4]
  Herbicidal effects Barnyard grass: 5
Smallflower flatsedge; [4]
  Herbicidal effects Small flower flatsedge: 5

## O=C(NOc1cccc(Cl)c1Cl)NC1CCCCC1 [Compound No. 3, 1-Cyclohexyl-3-(2,3-dichlorophenoxy) urea]
Japanese bulrush; [4]
  Herbicidal effects Japanese bulrush: 5
monochoria; [4]
  Herbicidal effects Monochoria: 5
[1]; [4]
  Herbicidal effects Barnyard grass: 5
Smallflower flatsedge; [4]
  Herbicidal effects Small flower flatsedge: 5

## CN(C)C(=O)Nc1ccc(Cl)c(Cl)c1 [DCMU, reference compound]
barnyardgrass; Dose 0.25 kg/Ha, water surface application
  Herbicidal effects Barnyard grass: 3 (Herbicidal effect (or phytotoxicity) in a range of 60 to 69%)
barnyardgrass; Dose 0.5 kg/Ha, water surface application
  Herbicidal effects Barnyard grass: 5
barnyardgrass; Dose 1 kg/Ha, water surface application
  Herbicidal effects Barnyard grass: 5
Paddy rice; Dose 0.25 kg/Ha, rice seedlings of 2-leaf stage transplanted, water surface application
  Phytotoxicity Paddy rice: 2 (Herbicidal effect (or phytotoxicity) in a range of 40 to 49%)
Paddy rice; Dose 0.5 kg/Ha, rice seedlings of 2-leaf stage transplanted, water surface application
  Phytotoxicity Paddy rice: 4 (Herbicidal effect (or phytotoxicity) in a range of 80 to 89%)
Paddy rice; Dose 1 kg/Ha, rice seedlings of 2-leaf stage transplanted, water surface application
  Phytotoxicity Paddy rice: 5

## NC(=O)NOc1cccc(Cl)c1 [m-chlorophenoxy urea]
[2]
  herbicidal activites: does not show any herbicidal activites
